Data as given in patent US6417194B1, “Quinolines and quinazolines useful in therapy” (Pfizer, Inc., priority 1997, dated 2002).

Tested on: human prostate
Experiment: Contractile responses of human prostate
Details: antagonist affinity estimate against (−)-noradrenaline contractions of prostatic tissue strips; single antagonist concentration, incubated 2 hours
Procedure: Contractile Responses of Human Prostate
Prostatic tissue was cut into longitudinal strips (approximately 3×2×10 mm) and suspended in organ baths under a resting tension of 1 g in Krebs Ringer bicarbonate of the following composition (mM): NaCl (119), KCl (4.7), CaCl2 (2.5), KH2PO4 (1.2), MgSO4 (1.2), NaHCO3 (25), glucose (11), and gassed with 95% O2/5% CO2.
The solution also contained […]. Tissues were exposed to a sensitising dose of (−)-noradrenaline ([…]) and washed over a 45 minute period. Isometric contractions were obtained in response to cumulative additions of (−)-noradrenaline to obtain control curves in all tissues. A further curve was then generated in the presence or absence of antagonist (incubated for 2 hours). Antagonist affinity estimates (pA2) were determined using a single concentration of competing antagonist, […] where the dose ratio (DR), relative to corresponding controls, was produced by a single concentration of antagonist [A], assuming competitive antagonism and Schild regression close to unity.

Structure (SMILES): COc1cc2nc(N3CCCN(C(=O)N4CCOCC4)CC3)nc(N)c2cc1OCC1CCC1 [Example 3, 4-Amino-6-cyclobutylmethyloxy-7-methoxy-2-[4-(4-morpholinecarbonyl)-1,4-diazepan-1-yl]quinazoline]
- pA2 value: 9.2
